From patent US20180244699A1, “1-HYDROXY-3H-2,1-BENZOXABOROLE DERIVATIVES AND THEIR USE AS MICROBIOCIDES” (Syngenta Participations AG, priority 2015, published 2018)

What was measured:
[1] = system: Pyrenophora teres; assay: Pyrenophora teres / barley / leaf disc preventative (net blotch); format: in vivo; settings: 200 ppm, barley leaf segments, inoculated 2 days after application, compared to untreated control
Protocol: 14. Pyrenophora teres/Barley/Leaf Disc Preventative (Net Blotch) Barley leaf segments cv. Hasso are placed on agar in a multiwell plate (24-well format) and sprayed with the formulated test compound diluted in water. The leaf segments are inoculated with a spore suspension of the fungus 2 days after application. The inoculated leaf segments are incubated at 20° C. and 65% rh under a light regime of 12 h light/12 h darkness in a climate cabinet and the activity of a compound is assessed as disease control compared to untreated when an appropriate level of disease damage appears in untreated check leaf segments (5-7 days after application).

[2] = system: Pythium ultimum; assay: Pythium ultimum / liquid culture (seedling damping off); format: cell-based; settings: Globisporangium ultimum, growth inhibition photometrically 2-3 days after application, compared to untreated control
In short: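 Fungal mycelia fragments and oospores from fresh liquid culture mixed into potato dextrose broth and added to DMSO solutions of test compound. Incubated at 24° C.; growth inhibition read photometrically 2-3 days after application.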

[3] = system: Monographella nivalis (Microdochium nivale); assay: Monographella nivalis (Microdochium nivale) / liquid culture (foot rot cereals); format: cell-based; settings: growth inhibition photometrically 4-5 days after application, compared to untreated control
In short: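 Conidia from cryogenic storage were mixed into potato dextrose broth and added to wells holding test compound in DMSO. Incubation was at 24° C, with growth inhibition measured photometrically 4-5 days after application.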

[4] = system: Glomerella lagenarium (Colletotrichum lagenarium); assay: Glomerella lagenarium (Colletotrichum lagenarium) / liquid culture (anthracnose); format: cell-based; settings: Colletotrichum orbiculare, growth inhibition photometrically 3-4 days after application, compared to untreated control
In short: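 Conidia from cryogenic storage suspended in potato dextrose broth and added to test compound in DMSO. Incubation at 24° C; growth inhibition read photometrically 3-4 days after application.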

[5] = system: Mycosphaerella graminicola (Septoria tritici); assay: Mycosphaerella graminicola (Septoria tritici) / liquid culture (Septoria blotch); format: cell-based; settings: Zymoseptoria tritici, growth inhibition photometrically 4-5 days after application, compared to untreated control

With `CCc1ccc(NC(=O)c2ccc3c(c2OC)B(O)OC3)cc1` [Compound 29, N-(4-ethylphenyl)-1-hydroxy-7-methoxy-3H-2,1-benzoxaborole-6-carboxamide] the “control of Pyrenophora teres” value [1] was “at least 80%”, the inhibition of growth at 20 ppm [2] was at least 80% and the inhibition of growth at 20 ppm [3] was at least 80%. For the same molecule, the inhibition of growth at 20 ppm [4] was at least 80% and the inhibition of growth at 20 ppm [5] was at least 80%.
